Measured values: US11203599B2, “Solid forms of an antiviral compound” (Gilead Pharmasset LLC, priority 2014, dated 2021)
Structures can show the parent of a compound that is named as a salt.

Tests used:
Assay type in all cases: physicochemical
[1] = Water uptake of the desolvated form in contact with air (water by KF)
Description: (§1) The stable form screen of Compound I bis-HCl was performed using 20 solvents (5-10 volumes) in an attempt to discover all crystalline forms, as summarized in Table 2. Four crystalline solvates were discovered in the slurries, which utilized alcohols such as methanol, ethanol and 1-propanol. With ethanol, the initial precipitation was Compound I bis-HCl Form III solids; after stirring for two weeks, the solids became Compound I bis-HCl Form V. The shapes of these crystals appeared as needles, shown in FIG. 47. After vacuum drying, these solvates lost solvents easily and changed to Compound I bis-HCl Form VI. […] For example, Compound I bis-HCl Form VI contains 8.8% water by KF after drying the methanol solvate and contains 5.2% water after drying the ethanol solvate. Each form was characterized by XRPD, DSC and TGA (FIGS. 4-19). TGA and DSC analysis were conducted after the samples were dried at room temperature in vacuum oven for 1 hour.

[2] = Dynamic vapor sorption (DVS)
[3] = Stable form screen of Compound I bis-HCl: solubility in solvents; details: thermodynamic from solid
Description: as §1

With `COC[C@H]1C[C@@H](c2ncc(-c3ccc4c(c3)COc3cc5c(ccc6nc([C@@H]7CC[C@H](C)N7C(=O)[C@@H](NC(=O)OC)C(C)C)[nH]c65)cc3-4)[nH]2)N(C(=O)[C@H](NC(=O)OC)c2ccccc2)C1` [Compound I bis-HCl Form VI, methyl {(2S)-1-[(2S,5S)-2-(9-{2-[(2S,4S)-1-{(2R)-2-[(methoxycarbonyl)amino]-2-phenylacetyl}-4-(methoxymethyl)pyrrolidin-2-yl]-1H-imidazol-5-yl}-1,11-dihydroisochromeno[4′,3′:6,7]naphtho[1,2-d]imidazol-2-yl)-5-methylpyrrolidin-1-yl]-3-methyl-1-oxobutan-2-yl}carbamate bis-hydrochloride] the “Water by KF” value ([1]; after drying the ethanol solvate) was 5.2%, the “Water by KF” value ([1]; after drying the methanol solvate) was 8.8% and the “Water absorption in contact with air” value ([1]; desolvated form) was “absorbs water quickly”. For the same compound, the “Hygroscopicity by DVS analysis” value ([2]; FIG. 19) was “hygroscopic”.

In the case of `COC[C@H]1C[C@@H](c2ncc(-c3ccc4c(c3)COc3cc5c(ccc6nc([C@@H]7CC[C@H](C)N7C(=O)[C@@H](NC(=O)OC)C(C)C)[nH]c65)cc3-4)[nH]2)N(C(=O)[C@H](NC(=O)OC)c2ccccc2)C1` [Compound I D-tartrate Form II, methyl {(2S)-1-[(2S,5S)-2-(9-{2-[(2S,4S)-1-{(2R)-2-[(methoxycarbonyl)amino]-2-phenylacetyl}-4-(methoxymethyl)pyrrolidin-2-yl]-1H-imidazol-5-yl}-1,11-dihydroisochromeno[4′,3′:6,7]naphtho[1,2-d]imidazol-2-yl)-5-methylpyrrolidin-1-yl]-3-methyl-1-oxobutan-2-yl}carbamate D-tartrate], the “Moisture uptake in DVS” value ([2]; between about 10-50% RH, FIG. 53) is reported as “about 7%”.

Work on `COC[C@H]1C[C@@H](c2ncc(-c3ccc4c(c3)COc3cc5c(ccc6nc([C@@H]7CC[C@H](C)N7C(=O)[C@@H](NC(=O)OC)C(C)C)[nH]c65)cc3-4)[nH]2)N(C(=O)[C@H](NC(=O)OC)c2ccccc2)C1` [Compound I bis-HCl, methyl {(2S)-1-[(2S,5 S)-2-(9-{2-[(2S,4S)-1-{(2R)-2-[(methoxycarbonyl)amino]-2-phenylacetyl}-4-(methoxymethyl)pyrrolidin-2-yl]-1H-imidazol-5-yl}-1,11-dihydroisochromeno[4′,3′:6,7]naphtho[1,2-d]imidazol-2-yl)-5-methylpyrrolidin-1-yl]-3-methyl-1-oxobutan-2-yl}carbamate bis-hydrochloride] yielded a solubility ([3]; ethanol, organic solvent or mixture, solvent EtOH, initial Form III, final Form V) of 9000 µg/mL, a solubility ([3]; ethanol/water, aqueous with cosolvent or surfactant or cyclodextrin, solvent EtOH/water, Solution) of over 20000 µg/mL and a solubility ([3]; methanol, organic solvent or mixture, solvent MeOH, final form Compound I bis-HCl Form II) of 50000 µg/mL. The solubility ([3]; organic solvent or mixture, solvent 1-Propanol, final form Compound I bis-HCl Form IV) was 9000 µg/mL, the solubility ([3]; organic solvent or mixture, solvent 2-Butanol, Solution) was over 50000 µg/mL and the solubility ([3]; organic solvent or mixture, solvent Acetone, Mesophase) was 6000 µg/mL. It also gave a solubility ([3]; organic solvent or mixture, solvent DCM, Solution) of over 20000 µg/mL, a solubility ([3]; organic solvent or mixture, solvent Ethyl acetate, Mesophase) of under 1000 µg/mL and a solubility ([3]; organic solvent or mixture, solvent IPAc, Mesophase) of under 1000 µg/mL. For the same compound, the solubility ([3]; organic solvent or mixture, solvent MIBK, Mesophase) was under 1000 µg/mL, the solubility ([3]; organic solvent or mixture, solvent MTBE, Amorphous) was under 1000 µg/mL and the solubility ([3]; organic solvent or mixture, solvent Toluene, Mesophase) was under 1000 µg/mL. For the same compound, the solubility ([3]; organic solvent or mixture, solvent heptane, Amorphous) was under 1000 µg/mL and the solubility ([3]; solvent Water, final form Amorphous) was under 1000 µg/mL.
